Data reported in patent US10005768B2, “Carboxamide derivatives and use thereof” (Purdue Pharma L.P., priority 2013, dated 2018).

biological target: T1, human Nav1.7 (Homo sapiens (Human), UniProt Q15858); experiment: FLIPR sodium dye assay (CoroNa Green AM Na+ dye, primary fluorescence assay); assay type: cell-based; details: recombinant Nav1.7/HEK293 cells
Summary of the method: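 HEK293 cells stably expressing human Nav1.7 α subunit (no β/γ subunits), loaded with 5 μM CoroNa Green Na+ dye in HEPES-buffered Hanks-type saline, pH 7.3. Na+ influx stimulated by 100 μM veratridine plus 10 μg/mL Leiurus scorpion venom; compounds tested at 20 μM down to 0.001 μM (10 points, 0.2% DMSO).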

T1 sequence (Q15858 other isoform, or with tags, fused parts or gaps): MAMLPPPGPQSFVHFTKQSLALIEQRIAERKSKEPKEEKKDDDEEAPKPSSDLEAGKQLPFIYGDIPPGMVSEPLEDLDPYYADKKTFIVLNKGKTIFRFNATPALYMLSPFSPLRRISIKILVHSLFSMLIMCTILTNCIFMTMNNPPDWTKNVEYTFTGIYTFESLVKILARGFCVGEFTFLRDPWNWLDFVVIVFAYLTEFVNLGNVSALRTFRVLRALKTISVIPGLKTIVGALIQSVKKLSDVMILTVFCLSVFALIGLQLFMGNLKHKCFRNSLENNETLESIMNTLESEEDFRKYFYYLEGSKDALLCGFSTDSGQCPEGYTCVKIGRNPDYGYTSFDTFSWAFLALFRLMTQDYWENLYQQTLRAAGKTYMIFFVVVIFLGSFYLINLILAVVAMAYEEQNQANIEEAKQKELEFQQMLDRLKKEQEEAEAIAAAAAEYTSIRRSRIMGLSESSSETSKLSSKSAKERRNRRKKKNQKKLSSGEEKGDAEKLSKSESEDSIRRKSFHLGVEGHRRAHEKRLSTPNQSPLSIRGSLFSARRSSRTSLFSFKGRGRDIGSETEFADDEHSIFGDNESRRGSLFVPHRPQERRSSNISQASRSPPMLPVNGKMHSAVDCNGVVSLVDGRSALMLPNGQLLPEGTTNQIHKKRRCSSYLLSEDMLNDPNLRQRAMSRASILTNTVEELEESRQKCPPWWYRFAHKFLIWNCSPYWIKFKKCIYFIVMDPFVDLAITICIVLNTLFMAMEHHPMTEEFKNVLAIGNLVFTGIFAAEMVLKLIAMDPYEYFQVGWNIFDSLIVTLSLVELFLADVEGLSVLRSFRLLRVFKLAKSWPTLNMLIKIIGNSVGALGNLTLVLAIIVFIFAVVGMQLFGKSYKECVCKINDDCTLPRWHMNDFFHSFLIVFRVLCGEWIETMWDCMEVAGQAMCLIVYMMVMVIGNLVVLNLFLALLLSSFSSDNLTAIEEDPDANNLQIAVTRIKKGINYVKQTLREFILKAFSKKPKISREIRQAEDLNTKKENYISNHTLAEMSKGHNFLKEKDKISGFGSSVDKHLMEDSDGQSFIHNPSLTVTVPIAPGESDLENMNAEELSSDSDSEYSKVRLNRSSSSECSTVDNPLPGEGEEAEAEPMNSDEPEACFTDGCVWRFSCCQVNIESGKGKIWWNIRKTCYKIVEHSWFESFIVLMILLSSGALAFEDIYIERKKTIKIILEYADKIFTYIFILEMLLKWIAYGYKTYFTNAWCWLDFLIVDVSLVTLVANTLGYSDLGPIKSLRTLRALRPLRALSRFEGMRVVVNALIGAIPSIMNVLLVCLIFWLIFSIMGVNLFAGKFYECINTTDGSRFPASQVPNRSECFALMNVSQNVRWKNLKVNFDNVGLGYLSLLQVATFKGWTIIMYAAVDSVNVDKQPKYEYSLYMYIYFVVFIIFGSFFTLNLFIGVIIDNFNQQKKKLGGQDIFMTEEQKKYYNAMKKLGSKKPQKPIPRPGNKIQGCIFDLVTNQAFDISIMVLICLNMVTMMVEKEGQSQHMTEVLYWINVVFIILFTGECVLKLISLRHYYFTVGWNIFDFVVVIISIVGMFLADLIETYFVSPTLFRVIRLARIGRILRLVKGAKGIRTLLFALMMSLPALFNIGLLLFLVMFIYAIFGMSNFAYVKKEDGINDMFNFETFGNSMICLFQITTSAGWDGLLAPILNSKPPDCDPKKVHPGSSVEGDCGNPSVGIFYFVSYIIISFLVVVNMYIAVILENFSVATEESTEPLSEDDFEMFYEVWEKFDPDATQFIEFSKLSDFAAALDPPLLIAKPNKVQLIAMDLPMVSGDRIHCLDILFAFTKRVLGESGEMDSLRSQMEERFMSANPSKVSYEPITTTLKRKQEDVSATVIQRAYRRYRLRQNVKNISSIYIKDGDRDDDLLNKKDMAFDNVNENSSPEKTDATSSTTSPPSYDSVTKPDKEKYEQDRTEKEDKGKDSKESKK

Compound	IC50 [µM]
NC(=O)c1cccc(-c2ccc(Oc3ccc(C(F)(F)F)cc3CN3CCCC(C(N)=O)C3)cc2)n1 (centres unmarked) [compound 121, 6-(4-(2-((3-carbamoylpiperidin-1-yl)methyl)-4-(trifluoromethyl)phenoxy)phenyl) picolinamide]	0.716 ± 0.09

biological target: T1, human Nav1.7; experiment: FLIPR membrane potential dye assay (alternative fluorescence assay); assay type: cell-based; details: recombinant Nav1.7/HEK293 cells
Procedure: In vitro assays were performed in a recombinant cell line expressing cDNA encoding the alpha subunit (Nav1.7, SCN9a, PN1, NE) of human Nav1.7 (Accession No. NM_002977). The cell line was provided by investigators at Yale University (Cummins et al, J. Neurosci. 18(23): 9607-9619 (1998)). For dominant selection of the Nav1.7-expressing clones, the expression plasmid co-expressed the neomycin resistance gene. The cell line was constructed in the human embryonic kidney cell line, HEK293, under the influence of the CMV […] promoter, and stable clones were selected using limiting dilution cloning and antibiotic selection using the neomycin analogue, G418. Recombinant beta and gamma subunits were not introduced into this cell line. Additional cell lines expressing recombinant Nav1.7 cloned from other species can also be used, alone or in combination with various beta subunits, gamma subunits or chaperones.
A fluorescence indicator that can be used in alternative fluorescence assays is the blue version membrane potential dye (MDS, Molecular Devices, Sunnyvale, Calif.), a dye that detects changes in molecules following a change in membrane potential. An increase in fluorescence is expected if agonist stimulation provokes a change in membrane potential. Cells expressing Nav1.7 or other sodium channels are incubated with the membrane potential dye 30-60 minutes before the fluorescence assay. In the case of the KCl pre-stimulation version of the assay, the dye and all other components are washed out immediately before the assay, and the dye is then replaced. In the version lacking KCl pre-stimulation, the dye remains on the cells and is not washed out or replaced. The dye is stored in the dark as a lyophilized powder, and then an aliquot dissolved in assay buffer to form a 20×-concentrated stock solution that can be used for several weeks.
In the fluorescence assays, two agonists were used in combination, namely 1) veratridine; and 2) the venom from the yellow scorpion, Leiurus quinquestriatus hebraeus. Veratridine is an alkaloid small molecule that facilitates the capture of channel openings by inhibiting inactivation, and the scorpion venom is a natural preparation that includes peptide toxins selective for different subsets of voltage-gated sodium channels. These scorpion toxins inhibit the fast inactivation of their cognate target channels. Stock solutions of the agonists were prepared to 40 mM in DMSO (veratridine) and 1 mg/mL in dH2O (scorpion venom), and then diluted to make a 4× or 2× stock (depending on the particular assay) in assay buffer, the final concentration being 100 μM (veratridine) and 10 μg/mL (scorpion venom). Both of the agonists were purchased from Sigma Aldrich, St. Louis, Mo.
Test compounds were dissolved in DMSO to yield 10 mM stock solutions. The stock solutions were further diluted using DMSO in 1:3 serial dilution steps with 10 points (10,000 μM, […], 370 μM, 123 μM, 41 μM, 14 μM, 4.6 μM, 1.5 μM and 0.5 μM). The stock solutions were further diluted in assay buffer (1:125) as 4× stock serial dilutions with a DMSO concentration of 0.8% (final [DMSO], in the assay, from the compounds component=0.2%), so that the compounds' final concentrations in the assay were 20 μM, 6.7 μM, 2.2 μM, 0.74 μM, 0.25 μM and 0.08 μM, 0.03 μM, 0.01 μM, 0.003 μM and 0.001 μM. If a particular test article appeared to be especially potent, then the concentration curve was adjusted, e.g., to 10-fold lower concentrations, in order to perform the dose-response in a more relevant concentration range. Compound dilutions were added during the dye-loading and pre-stimulation step, and then again during the fluorescence assay, early in the kinetic read.
The data were analyzed according to methods known to those skilled in the art or using the GraphPad® Prism Program, version 4.0 or higher (available from GraphPad Software, San Diego, Calif.) to determine the IC50 value for the test article. […]

Compound	IC50 [µM]
NC(=O)c1cc(N[C@H]2CCNC2=O)nc(-c2ccc(Oc3ccc(Cl)cc3-c3ccnn3C3CNC3)cc2)n1 [compound 137, (S)-2-(4-(2-(1-(azetidin-3-yl)-1H-pyrazol-5-yl)-4-chlorophenoxy)phenyl)-6-((2-oxopyrrolidin-3-yl)amino)pyrimidine-4-carboxamide]	> 20
CCN(CCO)C(=O)c1cc(C(F)(F)F)ccc1Oc1ccc(-c2cccc([C@H](O)CO)n2)cc1 [compound 171, (S)-2-(4-(6-(1,2-dihydroxyethyl)pyridin-2-yl)phenoxy)-N-ethyl-N-(2-hydroxyethyl)-5-(trifluoro-methyl)benzamide]	> 20
Cn1nccc1-c1cc(Cl)ccc1Oc1ccc(-c2nc(N[C@H]3CCNC3=O)cc(C(N)=O)n2)cc1 [compound 141, (S)-2-(4-(4-chloro-2-(1-methyl-1H-pyrazol-5-yl)phenoxy)phenyl)-6-((2-oxopyrrolidin-3-yl)amino)-pyrimidine-4-carboxamide]	0.45 ± 0.053
Cn1nccc1-c1cc(C(F)(F)F)ccc1Oc1ccc(-c2nccc(C(N)=O)n2)cc1 [compound 125, 2-(4-(2-(1-methyl-1H-pyrazol-5-yl)-4-(trifluoromethyl)phenoxy)phenyl) pyrimidine-4-carboxamide]	0.311 ± 0.006
CCN(CC)Cc1cc(C(F)(F)F)ccc1Oc1ccc(-c2nc(C(N)=O)cc([C@@H](O)CO)n2)cc1 [compound 133, (R)-2-(4-(2-((diethylamino)methyl)-4-(trifluoromethyl)phenoxy)phenyl)-6-(1,2-dihydroxyethyl)pyrimidine-4-carboxamide]	0.699 ± 0.045
CCN(C)C(=O)c1cc(C(F)(F)F)ccc1Oc1ccc(-c2cccc([C@H](O)CO)n2)cc1 [compound 169, (S)-2-(4-(6-(1,2-dihydroxy-ethyl)pyridin-2-yl)phenoxy)-N-ethyl-N-methyl-5-(trifluoro-methyl)benzamide]	1.55 ± 0.286
Cn1nccc1-c1cc(C(F)(F)F)ccc1Oc1ccc(-c2nc(N[C@H]3CCNC3=O)cc(C(N)=O)n2)cc1 [compound 126, (S)-2-(4-(2-(1-methyl-1H-pyrazol-5-yl)-4-(trifluoromethyl)phenoxy)phenyl)-6-((2-oxopyrrolidin-3-yl)amino)pyrimidine-4-carboxamide]	0.288 ± 0.045
CCN(CCN(C)C)C(=O)c1cc(C(F)(F)F)ccc1Oc1ccc(-c2cccc([C@H](O)CO)n2)cc1 [compound 172, (S)-2-(4-(6-(1,2-dihydroxyethyl)pyridin-2-yl)phenoxy)-N-(2-(dimethyl-amino)ethyl)-N-ethyl-5-(trifluoromethyl)benzamide]	7.97 ± 1.19
Cn1nccc1-c1cc(C(F)(F)F)ccc1Oc1ccc(-c2cccc(C(N)=O)n2)cc1 [compound 123, 6-(4-(2-(1-methyl-1H-pyrazol-5-yl)-4-(trifluoromethyl)phenoxy)phenyl) picolinamide]	0.149 ± 0.056
C[C@H](Nc1cc(C(N)=O)nc(-c2ccc(Oc3ccc(C(F)(F)F)cc3-c3cnc(N(C)C)cn3)cc2)n1)C(N)=O [compound 134, (S)-6-((1-amino-1-oxopropan-2-yl)amino)-2-(4-(2-(5-(dimethylamino)pyrazin-2-yl)-4-(trifluoromethyl)phenoxy)phenyl) pyrimidine-4-carboxamide]	0.393 ± 0.048
O=C(Nc1nncs1)c1cc(C(F)(F)F)ccc1Oc1ccc(-c2cccc([C@H](O)CO)n2)cc1 [compound 174, (S)-2-(4-(6-(1,2-dihydroxyethyl)pyridin-2-yl)phenoxy)-N-(1,3,4-thiadiazol-2-yl)-5-(trifluoromethyl)-benzamide]	3.61 ± 0.229
C[C@H](Nc1cc(C(N)=O)nc(-c2ccc(Oc3ccc(C(F)(F)F)cc3-c3ccnn3C)cc2)n1)C(N)=O [compound 138, (S)-6-((1-amino-1-oxopropan-2-yl)amino)-2-(4-(2-(1-methyl-1H-pyrazol-5-yl)-4-(trifluoromethyl)phenoxy)phenyl) pyrimidine-4-carboxamide]	0.6 ± 0.077
CCN(CC)Cc1cc(C(F)(F)F)ccc1Oc1ccc(-c2nc(C(N)=O)cc([C@H](O)CO)n2)cc1 [compound 130, (S)-2-(4-(2-((diethylamino)methyl)-4-(trifluoromethyl)phenoxy)phenyl)-6-(1,2-dihydroxyethyl)pyrimidine-4-carboxamide]	1.28 ± 0.135
NC(=O)c1cc(C(=O)O)nc(-c2ccc(Oc3ccc(C(F)(F)F)cc3CN3CCOCC3)cc2)n1 [compound 132, 6-carbamoyl-2-(4-(2-(morpholinomethyl)-4-(trifluoromethyl)phenoxy)phenyl) pyrimidine-4-carboxylic acid]	9.8 ± 0.365
C[C@H](Nc1cc(C(N)=O)nc(-c2ccc(Oc3ccccc3-c3ccnn3C)cc2)n1)C(N)=O [compound 139, (S)-6-((1-amino-1-oxopropan-2-yl)amino)-2-(4-(2-(1-methyl-1H-pyrazol-5-yl)phenoxy)phenyl)-pyrimidine-4-carboxamide]	10 to 20
C[C@H](Nc1cc(C(N)=O)nc(-c2ccc(Oc3ccccc3-c3ccnn3C)cc2)n1)C(N)=O [compound 140, (S)-6-((1-amino-1-oxopropan-2-yl)amino)-2-(4-(2-(1-methyl-1H-pyrazol-5-yl)phenoxy)phenyl)-pyrimidine-4-carboxamide]	4.23 ± 0.479
O=C(Nc1nccs1)c1cc(C(F)(F)F)ccc1Oc1ccc(-c2cccc([C@H](O)CO)n2)cc1 [compound 175, (S)-2-(4-(6-(1,2-dihydroxyethyl)pyridin-2-yl)phenoxy)-N-(thiazol-2-yl)-5-(trifluoromethyl)benzamide]	1.31 ± 0.054
O=C(NCc1nnn[nH]1)c1cc(C(F)(F)F)ccc1Oc1ccc(-c2cccc([C@H](O)CO)n2)cc1 [compound 176, (S)-N-((1H-tetrazol-5-yl)methyl)-2-(4-(6-(1,2-dihydroxyethyl)-pyridin-2-yl)phenoxy)-5-(trifluoromethyl)benzamide]	> 20
CCN(CC)Cc1cc(C(F)(F)F)ccc1Oc1ccc(-c2nc(CCOC(C)=O)cc(C(N)=O)n2)cc1 [compound 124, 2-(6-carbmoyl-2-(4-(2-((diethylamino)methyl)-4-(trifluoromethyl)phenoxy)phenyl)pyrimidin-4-yl)ethyl acetate]	0.367 ± 0.028
CCN(CC)Cc1cc(C(F)(F)F)ccc1Oc1ccc(-c2nc(C(N)=O)cc(C(=O)O)n2)cc1 [compound 131, 6-carbamoyl-2-(4-(2-((diethylamino)methyl)-4-(trifluoromethyl)phenoxy)phenyl) pyrimidine-4-carboxylic acid]	> 20
Cn1nccc1-c1cc(C(F)(F)F)ccc1Oc1ccc(-c2nc(C(N)=O)cc([C@H](O)CO)n2)cc1 [compound 122, (S)-6-(1,2-dihydroxyethyl)-2-(4-(2-(1-methyl-1H-pyrazol-5-yl)-4-(trifluoromethyl)phenoxy)phenyl) pyrimidine-4-carboxamide]	0.079 ± 0.015
NC(=O)c1cc([C@H](O)CO)cc(-c2ccc(Oc3ccc(Cl)cc3-c3ccnn3C3CNC3)cc2)n1 [compound 136, (S)-6-(4-(2-(1-(azetidin-3-yl)-1H-pyrazol-5-yl)-4-chlorophenoxy)phenyl)-4-(1,2-dihydroxyethyl)picolinamide]	> 20
